Results: PMC12436592 (Nature Communications, 2025)
“And” between values parts separate entries of the source, which are not always exact repeats. Equal entries are not always repeated.

Biological target: T1, hP2X7R (Homo sapiens, UniProt Q99572)
T1 sequence (Q99572 1-595): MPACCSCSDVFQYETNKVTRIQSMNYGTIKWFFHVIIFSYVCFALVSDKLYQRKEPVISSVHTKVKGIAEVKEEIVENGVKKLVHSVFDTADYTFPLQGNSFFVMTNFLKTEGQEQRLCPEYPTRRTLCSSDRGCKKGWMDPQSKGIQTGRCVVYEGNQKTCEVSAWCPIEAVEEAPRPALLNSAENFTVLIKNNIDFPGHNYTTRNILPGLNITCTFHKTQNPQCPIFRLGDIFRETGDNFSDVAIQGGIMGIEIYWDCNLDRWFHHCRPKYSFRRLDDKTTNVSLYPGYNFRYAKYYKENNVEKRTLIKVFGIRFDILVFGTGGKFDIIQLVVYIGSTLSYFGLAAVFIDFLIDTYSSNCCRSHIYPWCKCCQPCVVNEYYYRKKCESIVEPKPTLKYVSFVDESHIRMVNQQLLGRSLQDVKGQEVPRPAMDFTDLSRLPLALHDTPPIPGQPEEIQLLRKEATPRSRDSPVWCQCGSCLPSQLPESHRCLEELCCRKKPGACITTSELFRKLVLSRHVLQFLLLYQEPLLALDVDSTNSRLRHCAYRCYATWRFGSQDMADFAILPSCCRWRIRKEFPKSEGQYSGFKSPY
Test: TEVC determination of antagonist binding kinetics in Xenopus oocytes
Type: cell-based
Parameters: expressed in transfected cells; host or cells: Xenopus laevis oocytes injected with capped cRNA (modified pUC19 vector, T7)
Details: for IC50: Supplementary Fig. 10D, read-out: IC50 from binding equilibrium (plateau) dose inhibition curve; for off-rate of binding to the hP2X7R: graphically determined (y-intercept); for off-rate, Response [%]: single replicates
Protocol: Xenopus laevis frogs were from Nasco International (Fort Atkinson, WI) and kept at the Core Facility Animal Models (CAM) of the Biomedical Center (BMC) of LMU Munich, Germany (Az:4.3.2–5682/LMU/BMC/CAM) in accordance with the EU Animal Welfare Act. Ovaries were surgically extracted (ROB_54-011-AZ 2532.Vet_02-23-166), treated with collagenase (Nordmark, Uetersen, Germany 1.0–1.5 mg/mL, ≥2 at RT) and defolliculated (15-min treatment in Ca^2+-free oocyte Ringer (90 mM NaCl, 1 mM KCl, 2 mM MgCl2, 5 mM HEPES), respectively. 50 nL of cRNA (0.5 µg/µL) were injected using a Nanoject II injector (Science Products, Drummond) and oocytes were kept in ND96 (96 mM NaCl, 2 mM KCl, 1 mM MgCl2, 1 mM CaCl2, 5 mM HEPES, pH 7.4–7.5). The plasmid containing the hP2X7R was linearized with NotI-HF (NEB) and purified with the MinElute Reaction Cleanup Kit (Qiagen, Hilden, Germany). Capped cRNA was synthesized using the mMESSAGE mMACHINE™ T7 Transcription Kit (ThermoFisher Scientific, Schwerte, Germany) and dissolved in nuclease-free water (500 ng/µL). Injected oocytes were allowed to express for at least 36 hours.
Two-electrode voltage clamp recordings were performed at room temperature and a holding potential of −70 mV using a Turbo Tec-05X Amplifier (npi electronic, Tamm, Germany), a magnetic valve system, and CellWorks E 5.5.1 software. Currents were filtered at 1 kHz and digitized at 200 Hz. Electrode resistances were below 1.2 MΩ. […] Recordings were performed in ND96.
After obtaining reproducible agonist-evoked responses, solutions were switched to antagonist-containing recording solutions with and without ATP to determine association rates. Responses following antagonist application were normalized to the preceding, stabilized agonist responses. Dissociation was determined in 1- or 2 min intervals when currents were reduced to <10%. Association curves were fit to the data by the equation % Response = (100-Plateau)*exp(-kobs*Time) + Plateau, where Plateau indicates the response at equilibrium and kobs the experimentally determined on-rate. All data were analyzed using Prism software (GraphPad Software, Inc., Version 8.3.0, San Diego, CA) and are presented as means ± SD from at least three oocytes. […] The final concentration of DMSO in the recording solution was ≤1%.
Supplementary Fig. 10: Kinetics of ligands binding to the hP2X7R measured by TEVC. (A) […]
All data represented as mean ± S.D. with n=3, 7, 7, and 7 f or the experiments performed at 3 nM, 10 nM, 30 nM, and 100 nM […]
(B) Representative current traces for t he activation
(C) On- and off-r at e constants and Ki
Observed on- r at es kobs were determined by fitting the data (Fig. 4H, Supplementary Fig. 10A) to the function: % response = (100- Plateau)*exp(-kobs*time)+Plateau and plotted against the antagonist concentrations to obtain koff according to k obs=kon*F+koff. Assuming a (simplified) 1:1 binding model, of f-r at e constant koff and Ki values were estimated using the previous formulas as well as Ki=koff/kon. […]
determined by Ca2+ imaging (18 nM, Fig. 3B ) and the binding equilibrium reached at each […]
values of UB-MBX-46 c annot reflect an accurate value due to the nearly negligible dissociation on the timescale of the experiment. If k off was estimated based on the IC50 value (IC50 = koff/kon panel D), a more accurate koff value can be obtained. Numbers in square brackets are 95% Confidence Intervals. *values obtained from an extrapolated dose inhibition curve from D . (D) The plateau values, representing the binding equilibrium, were used to generate dose inhibition

O=C(NNc1ccccc1Cl)C12CC3CC(CC(C3)C1)C2 [UB-ALT-P30, reference compound]
Ki (Ki=koff/kon, 1:1 binding model): 0.028 µM
IC50 (TEVC): 0.015 µM
off-rate of binding to the hP2X7R (TEVC): 0.29 min⁻¹
Response %, plateau (binding equilibrium) (log [Antagonist] M -7): 5.6% and 1.4% and 0% and 2.8%
Response %, plateau (binding equilibrium) (log [Antagonist] M -8): 55.2% and 63.2% and 73.1%
off-rate, Response [%] (time 2 min): 6.1% and 5.1% and 4% and 3.2% and 6.5%
off-rate, Response [%] (time 4 min): 18.2% and 19.2% and 16% and 12.9% and 19.4%
off-rate, Response [%] (time 6 min): 33.3% and 37.2% and 28% and 29% and 32.3%
off-rate, Response [%] (time 8 min): 48.5% and 57.7% and 44% and 38.7% and 48.4%
off-rate, Response [%] (time 10 min): 63.6% and 73.1% and 60% and 54.8% and 64.5%

CC12CC3CC1(C)C1(C)CC3(C(=O)NNc3ccccc3Cl)CC21C [UB-MBX-46]
Response [%], on-rate to hP2X7R (3 nM, 8 min): 81.7% and 82.6% and 84.4%
Response [%], on-rate to hP2X7R (3 nM, 10 min): 79.7% and 80.2% and 82.1%
Response [%], on-rate to hP2X7R (3 nM, 12 min): 77.1% and 77.3% and 80.4%
Response [%], on-rate to hP2X7R (3 nM, 14 min): 75.7% and 75% and 78.9%
Response [%], on-rate to hP2X7R (3 nM, 16 min): 74.3% and 73.3% and 77.9%
Response [%], on-rate to hP2X7R (3 nM, 18 min): 72.4% and 72% and 76.9%
Response [%], on-rate to hP2X7R (3 nM, 20 min): 71.3% and 75.5%
Response [%], on-rate to hP2X7R (3 nM, 22 min): 71.1% and 69.9% and 74.3%
Response [%], on-rate to hP2X7R (3 nM, 24 min): 70.1% and 68.7% and 73%
Response [%], on-rate to hP2X7R (3 nM, 26 min): 68.4% and 67% and 71.9%
Response [%], on-rate to hP2X7R (3 nM, 28 min): 67.5%
Response [%], on-rate to hP2X7R (10 nM, 8 min): 46.2% and 42.1% and 45.9% and 43.2%
Response [%], on-rate to hP2X7R (10 nM, 10 min): 38.5% and 32.7% and 36.4% and 35.2%
Response [%], on-rate to hP2X7R (10 nM, 12 min): 32.3% and 28.4% and 29.5% and 27.9%
Response [%], on-rate to hP2X7R (10 nM, 14 min): 27.8% and 23.8% and 23.7% and 22%
Response [%], on-rate to hP2X7R (10 nM, 16 min): 24.1% and 19.5% and 19% and 18.8%
Response [%], on-rate to hP2X7R (10 nM, 18 min): 21.6% and 17% and 14.3% and 15.8%
Response [%], on-rate to hP2X7R (10 nM, 20 min): 17.8% and 14.3% and 12.1% and 13.7%
Response [%], on-rate to hP2X7R (10 nM, 22 min): 14.9% and 12.5% and 10.6% and 11.9%
Response [%], on-rate to hP2X7R (10 nM, 24 min): 12.6% and 11.2% and 8.8% and 10.6%
Response [%], on-rate to hP2X7R (10 nM, 26 min): 11% and 9.8% and 7.8% and 9.3%
Response [%], on-rate to hP2X7R (30 nM, 10 min): 13.8% and 4.3% and 7.1% and 7.5%
Response [%], on-rate to hP2X7R (30 nM, 12 min): 8.8% and 2.5% and 5.3% and 5.2%
Response [%], on-rate to hP2X7R (30 nM, 14 min): 6% and 1.6% and 3.8% and 3.4%
Response [%], on-rate to hP2X7R (30 nM, 16 min): 4.7% and 0.9% and 2.8% and 2.9%
Response [%], on-rate to hP2X7R (30 nM, 18 min): 3% and 0.6% and 2.3% and 2%
Response [%], on-rate to hP2X7R (30 nM, 20 min): 1.7% and 0.4% and 2%
Response [%], on-rate to hP2X7R (30 nM, 22 min): 1.2% and 0.4% and 1.8%
Response [%], on-rate to hP2X7R (100 nM, 8 min): 0.4% and 0.9% and 0.6% and 1.9%
antagonism of the hP2X7R (TEVC, 300 µM ATP, 100 nM antagonist): strong antagonism
IC50 (TEVC): 0.0038 µM
off-rate of binding to the hP2X7R (TEVC): 0.07 min⁻¹
Response %, plateau (binding equilibrium) (log [Antagonist] M -7): 0.2985% and 1.206% and 0.0001019% and 1.64%
Response %, plateau (binding equilibrium) (log [Antagonist] M -7.5): 0.2898% and 1.031% and 2.642% and 2.211%
Response %, plateau (binding equilibrium) (log [Antagonist] M -8): 7.079% and 5.855% and 4.45E-19% and 3.075%
Response %, plateau (binding equilibrium) (log [Antagonist] M -8.5): 67.01% and 62.07% and 63.87%
off-rate, Response [%] (time 1 min): 2.6% and 0.9% and 1.5%
off-rate, Response [%] (time 2 min): 2.8% and 1.3% and 1.5%
off-rate, Response [%] (time 3 min): 3.3% and 1.5% (2×)
off-rate, Response [%] (time 4 min): 3.1% and 1.7% and 1.5%
off-rate, Response [%] (time 5 min): 2.6% and 1.7% and 1.5%
off-rate, Response [%] (time 6 min): 2.6% and 2% and 1.5%
off-rate, Response [%] (time 7 min): 2.9% and 2.3% and 1.5%
off-rate, Response [%] (time 8 min): 2.9% and 2.3% and 1.5%
off-rate, Response [%] (time 9 min): 2.9% and 2.5% and 1.5%
off-rate, Response [%] (time 10 min): 3.3% and 2.5% and 1.5%
antagonist dissociation from the hP2X7R (within 10 min of wash-out): virtually irreversible binding
